{"source": "paper PMC10607100", "about": "“Anticancer and Antiphytopathogenic Activity of Fluorinated Isatins and Their Water-Soluble Hydrazone Derivatives” (International Journal of Molecular Sciences, 2023)", "format_in_all_cases": "cell-based", "key": {"[1]": {"test_system": "Xanthomonas campestris B-610", "assay": "Agar-well diffusion, bactericidal activity", "details": "Xanthomonas campestris", "how_it_was_run": "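Agar-well diffusion on GYCa agar (pH 7.2–7.4) seeded with bacterial suspension; 150 μL compound solution placed in 6-mm wells. Inhibition zone width measured after 36–40 h incubation.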"}, "[2]": {"test_system": "five representative phytopathogens", "assay": "Agar-well diffusion, bactericidal activity over the panel of phytopathogens", "description": "Plant pathogenic bacterial strains Micrococcus luteus B-109, Pectobacterium atrosepticum 1043, Pectobacterium carotovorum subsp. carotovorum MI, Pseudomonas fluorescens EL-2.1, and Xanthomonas campestris B-610 and the fungal strain Fusarium oxysporum IBPPM 543 were from the Collection of Rhizosphere Microorganisms, IBPPM RAS (WFCC no. 975, WDCM no. 1021) (CM IBPPM, http://collection.ibppm.ru). The pathogenic fungus Phytophthora cactorum VKM F-985, provided by the All-Russian Collection of Microorganisms (VKM) and deposited at the A.E. Favorsky Irkutsk Institute of Chemistry, SB RAS, was also used as a test organism. Bacteria M. luteus, P. carotovorum subsp. carotovorum, P. atrosepticum, and P. fluorescens were grown in a meat–peptone medium (BP), and X. campestris was grown in the medium with glucose, yeast extract, and calcium carbonate (GYCa). Solid media contained Bacto agar (18 g/L); pH was adjusted to 7.2–7.4. All bacterial cultures were grown at 28 °C. The mycelial cultures of F. oxysporum and P. cactorum were grown on a glucose–peptone–yeast (GPY) nutrient medium at 27 °C. For inoculum preparation, both fungal strains were initially grown on the agar GPY in Petri dishes and then transferred into the seed medium by punching out 5 mm of the agar plate culture with a self-designed cutter.\nThe antibacterial and antifungal activities of the compounds were explored using the agar-well diffusion method and the technique of mycelial radial growth inhibition. The method of diffusion in agar (measuring the diameter of growth inhibition zones) was used to determine the bactericidal activity. The 6-mm wells were made in agar medium (GYCa for Xanthomonas campestris or BP for other bacteria). Bacterial suspensions were distributed over the agar surface, and the tested compound’s solution (150 μL) was added to each well. The width of growth inhibition zones around the wells was determined after incubation for 36–40 h."}, "[3]": {"test_system": "Pseudomonas fluorescens EL-2.1", "assay": "Agar-well diffusion, bactericidal activity", "details": "Pseudomonas fluorescens, EL2.1, 2 mM/L", "how_it_was_run": "(§1)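 Bacteria spread on agar (BP medium; GYCa for X. campestris; pH 7.2–7.4) with 6-mm wells, each receiving 150 μL compound solution. Cultures grown at 28 °C; growth-inhibition zone width measured after 36–40 h.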"}, "[4]": {"test_system": "Pectobacterium carotovorum subsp. carotovorum MI", "assay": "Agar-well diffusion, bactericidal activity", "details": "Pectobacterium carotovorum, 2 mM/L", "how_it_was_run": "as §1"}, "Micrococcus luteus B-109": {"test_system": "Micrococcus luteus B-109", "assay": "Agar-well diffusion, bactericidal activity", "details": "Micrococcus luteus", "how_it_was_run": "as §1"}, "[5]": {"test_system": "Pectobacterium atrosepticum 1043", "assay": "Agar-well diffusion, bactericidal activity", "details": "Pectobacterium atrosepticum, 1043, 2 mM/L", "how_it_was_run": "as §1"}, "[6]": {"test_system": "Phytophthora cactorum VKM F-985", "assay": "Mycelial radial growth inhibition", "details": "Phytophthora cactorum; for inhibition of growth at 3 µM: 3 nmol/mL; for inhibition of growth at 3 µM / inhibition of growth at 7 µM / inhibition of growth at 20 µM / inhibition of growth / inhibition of growth at 40 µM: read-out: Inhibition value, I (%); for inhibition of growth at 7 µM: 7 nmol/mL; for inhibition of growth at 20 µM: 20 nmol/mL; for inhibition of growth: 27 nmol/mL; for inhibition of growth at 40 µM: 40 nmol/mL", "how_it_was_run": "(§2)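 Compounds mixed into molten GPY agar at various concentrations; centre inoculated with a 5-mm mycelial plug from 10-day cultures and incubated at 27 °C. Colony diameter compared with untreated control until control plate was covered (usually 12 days); ≥4 replicates in two experiments.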"}, "[7]": {"test_system": "Fusarium oxysporum IBPPM 543", "assay": "Mycelial radial growth inhibition", "details": "Fusarium oxysporum; for inhibition of growth at 1 µM: 1 nmol/mL; for inhibition of growth at 1 µM / inhibition of growth at 5 µM / inhibition of growth at 30 µM / inhibition of growth at 40 µM: read-out: Inhibition value, I (%); for inhibition of growth at 5 µM: 5 nmol/mL; for inhibition of growth at 30 µM: 30 nmol/mL; for inhibition of growth at 40 µM: 40 nmol/mL", "how_it_was_run": "as §2"}, "[8]": {"details": "Table S3, read-out: Inhibition zone width (mm), not less"}, "[9]": {"details": "120 h, age of the fungus 5 days"}, "[10]": {"details": "168 h, age of the fungus 7 days"}, "[11]": {"details": "216 h, age of the fungus 9 days"}, "[12]": {"details": "IBPPM543, 72 h, age of the fungus 3 days"}, "[13]": {"details": "IBPPM543, 120 h, age of the fungus 5 days"}, "[14]": {"details": "IBPPM543, 168 h, age of the fungus 7 days"}, "[15]": {"details": "IBPPM543, 216 h, age of the fungus 9 days"}}, "note": "Read-outs that look alike come from different tables or passages of the source."}
{"smiles": "Cc1ccc[n+](CC(=O)N/N=C2\\C(=O)N(Cc3ccccc3F)c3ccccc32)c1C", "note": "[Compound 7a]", "values": [{"measurement": "zone of inhibition at 2000 µM", "setting": "[1]; B610, 2 mM/L, average of 3 experiments, read-out: width of the inhibition zone (mm), X. campestris", "value": 5, "unit": "mm"}, {"measurement": "zone of inhibition at 2000 µM", "setting": "[1]; B610, Table S3, 2 mM/L, read-out: Inhibition zone width (mm), not less", "value": "≥ 5", "unit": "mm"}, {"measurement": "zone of inhibition at 2000 µM", "setting": "[2]; 36 h, 2 mM solutions, dependent on the test system used, read-out: inhibition zone width (mm), range over the test systems", "value": "2 to 6", "unit": "mm"}, {"measurement": "bactericidal activity", "setting": "[2]; Table S2", "value": "moderate bactericidal activity"}, {"measurement": "inhibition zone", "setting": "[2]; against P. carotovorum subsp. carotovorum MI, Ps. fluorescens EL-2.1 and X. campestris B-610", "value": "5–6 mm"}, {"measurement": "zone of inhibition at 2000 µM", "setting": "[3]; average of 3 experiments, read-out: width of the inhibition zone (mm), Ps. fluorescens", "value": 5, "unit": "mm"}, {"measurement": "zone of inhibition at 2000 µM", "setting": "[3]; [8]", "value": "≥ 5", "unit": "mm"}, {"measurement": "zone of inhibition at 2000 µM", "setting": "[4]; average of 3 experiments, read-out: width of the inhibition zone (mm), P. carotovorum subsp. carotovorum", "value": 6, "unit": "mm"}, {"measurement": "zone of inhibition at 2000 µM", "setting": "[4]; [8]", "value": "≥ 6", "unit": "mm"}, {"measurement": "zone of inhibition at 2000 µM", "setting": "Micrococcus luteus B-109; B109, 2 mM/L, average of 3 experiments, read-out: width of the inhibition zone (mm), M. luteus", "value": 2, "unit": "mm"}, {"measurement": "zone of inhibition at 2000 µM", "setting": "Micrococcus luteus B-109; B109, Table S3, 2 mM/L, read-out: Inhibition zone width (mm), not less", "value": "≥ 2", "unit": "mm"}, {"measurement": "zone of inhibition at 2000 µM", "setting": "[5]; average of 3 experiments, read-out: width of the inhibition zone (mm), P. atrosepticum", "value": 3, "unit": "mm"}, {"measurement": "zone of inhibition at 2000 µM", "setting": "[5]; [8]", "value": "≥ 3", "unit": "mm"}, {"measurement": "inhibition of growth at 3 µM", "setting": "[6]; 72 h, age of the fungus 3 days", "value": 5, "unit": "%"}, {"measurement": "inhibition of growth at 7 µM", "setting": "[6]; 72 h, age of the fungus 3 days", "value": 17, "unit": "%"}, {"measurement": "inhibition of growth at 20 µM", "setting": "[6]; 72 h, age of the fungus 3 days", "value": 21, "unit": "%"}, {"measurement": "inhibition of growth", "setting": "[6]; 72 h, age of the fungus 3 days", "value": 27, "unit": "%"}, {"measurement": "inhibition of growth at 40 µM", "setting": "[6]; 72 h, age of the fungus 3 days", "value": 42, "unit": "%"}, {"measurement": "EC50", "setting": "[6]; 120 h, day 5, read-out: EC50, µg/mL at Day 5, P. cactorum", "value": 22.9, "unit": "µg/mL"}, {"measurement": "inhibition of growth at 3 µM", "setting": "[6]; [9]", "value": 12, "unit": "%"}, {"measurement": "inhibition of growth at 7 µM", "setting": "[6]; [9]", "value": 21, "unit": "%"}, {"measurement": "inhibition of growth at 20 µM", "setting": "[6]; [9]", "value": 25, "unit": "%"}, {"measurement": "inhibition of growth", "setting": "[6]; [9]", "value": 29, "unit": "%"}, {"measurement": "inhibition of growth at 40 µM", "setting": "[6]; [9]", "value": 45, "unit": "%"}, {"measurement": "inhibition of growth at 3 µM", "setting": "[6]; [10]", "value": 4, "unit": "%"}, {"measurement": "inhibition of growth at 7 µM", "setting": "[6]; [10]", "value": 10, "unit": "%"}, {"measurement": "inhibition of growth at 20 µM", "setting": "[6]; [10]", "value": 16, "unit": "%"}, {"measurement": "inhibition of growth", "setting": "[6]; [10]", "value": 20, "unit": "%"}, {"measurement": "inhibition of growth at 40 µM", "setting": "[6]; [10]", "value": 38, "unit": "%"}, {"measurement": "inhibition of growth at 3 µM", "setting": "[6]; [11]", "value": 4, "unit": "%"}, {"measurement": "inhibition of growth at 7 µM", "setting": "[6]; [11]", "value": 6, "unit": "%"}, {"measurement": "inhibition of growth at 20 µM", "setting": "[6]; [11]", "value": 13, "unit": "%"}, {"measurement": "inhibition of growth", "setting": "[6]; [11]", "value": 16, "unit": "%"}, {"measurement": "inhibition of growth at 40 µM", "setting": "[6]; [11]", "value": 37, "unit": "%"}, {"measurement": "inhibition of growth at 1 µM", "setting": "[7]; [12]", "value": 9, "unit": "%"}, {"measurement": "inhibition of growth at 5 µM", "setting": "[7]; [12]", "value": 43, "unit": "%"}, {"measurement": "inhibition of growth at 30 µM", "setting": "[7]; [12]", "value": 51, "unit": "%"}, {"measurement": "inhibition of growth at 40 µM", "setting": "[7]; [12]", "value": 61, "unit": "%"}, {"measurement": "EC50", "setting": "[7]; IBPPM543, 120 h, day 5, read-out: EC50, µg/mL at Day 5, F. oxysporum", "value": 7.25, "unit": "µg/mL"}, {"measurement": "inhibition of growth at 1 µM", "setting": "[7]; [13]", "value": 4, "unit": "%"}, {"measurement": "inhibition of growth at 5 µM", "setting": "[7]; [13]", "value": 44, "unit": "%"}, {"measurement": "inhibition of growth at 30 µM", "setting": "[7]; [13]", "value": 59, "unit": "%"}, {"measurement": "inhibition of growth at 40 µM", "setting": "[7]; [13]", "value": 65, "unit": "%"}, {"measurement": "inhibition of growth at 1 µM", "setting": "[7]; [14]", "value": 8, "unit": "%"}, {"measurement": "inhibition of growth at 5 µM", "setting": "[7]; [14]", "value": 41, "unit": "%"}, {"measurement": "inhibition of growth at 30 µM", "setting": "[7]; [14]", "value": 56, "unit": "%"}, {"measurement": "inhibition of growth at 40 µM", "setting": "[7]; [14]", "value": 69, "unit": "%"}, {"measurement": "inhibition of growth at 1 µM", "setting": "[7]; [15]", "value": 0, "unit": "%"}, {"measurement": "inhibition of growth at 5 µM", "setting": "[7]; [15]", "value": 33, "unit": "%"}, {"measurement": "inhibition of growth at 30 µM", "setting": "[7]; [15]", "value": 55, "unit": "%"}, {"measurement": "inhibition of growth at 40 µM", "setting": "[7]; [15]", "value": 64, "unit": "%"}]}
